Patent US20220105058A1, “USE OF 3-O-SULFAMATE-16,16-DIMETHYL-D-HOMOEQUILENIN TO TREAT ONCOLOGICAL DISEASES” (priority 2018, published 2022)
Several values for one entry are separate records, joined by “and”; a condition that tells them apart may be missing. Equal entries are not always repeated. Entries after “also recorded” stand apart in the source; their conditions may differ. Where two headings read alike, the source gives them in different places.

Key:
[1] = tested on: triple negative breast cancer MDA-MB-231 cell line; assay: cell proliferation in MDA-MB-231; format: cell-based
[2] = tested on: hepatocellular carcinoma SK-Hep-1 cells; assay: activity against SK-Hep-1 cells; format: cell-based; settings: Homo sapiens, SK-HEP1
lung cancer A549 = assay: activity against A549; format: cell-based; settings: Homo sapiens
[3] = acute oral toxicity, OECD 423 test; settings: for Lethal effects (dead/total): 14 days observation
Procedure: LD50 of the medicament was determined in FVB mice transgenic for HER-2/neu using the OECD 423 test (OECD guideline for testing of chemicals. Acute Oral Toxicity-Acute Toxic Class Method).
12 female mice were used in the experiment.
At the first step, 3 mice were given the medicament at a dose of 300 mg/kg. The study medicament was administered intragastrically (i.g.) using a metal atraumatic gavage (the procedure corresponds to the oral administration in clinical settings). […] The dosage form for administration was prepared ex tempore.
The animals were examined 2 times a day, clinically examined individually after the dose administration during the first 60 minutes, with special attention during the first 4 hours, periodically during the first 24 hours, on Day 2 and weekly for up to 14 days. Each animal was thoroughly examined in the housing cage in the observer's hands. The overall conditions of the animals were recorded, such as peculiarities in their behavior, intensity and nature of motor activity, fur and skin appearance.
The body weights of the animals were recorded using a verified high-speed electronic laboratory balance Ohaus Scout Pro (USA) with a maximum load of 2000 g and a measurement step of 0.1 g.
On Day 15, the animals were euthanized and undergone autopsy analysis with the registration of macroscopic changes. The data was collected in a special individual autopsy form.
All of the experimental animals were subject to pathomorphological examination at the end of the study. The euthanized animals were carefully examined for the external pathological changes. The chest and abdominal cavities were examined along with the macroscopic analysis of internal organs.
When assessing the acute toxicity the animals were continuously observed for the first 60 minutes, and then examined every hour for 3 hours and further once in 24 hours. On the second day, the observation was carried out twice per day. Further the observations were made once per day. […] The animal was thoroughly examined in the housing cage in the observer's hands. The overall conditions of the animals were recorded, such as peculiarities in their behavior, intensity and nature of motor activity, fur and skin appearance.

[4] = tested on: subcutaneous xenografts of human SKBR-3 breast cancer
Procedure: (§1) A comparative study of the medicaments in vivo was performed in female Balb/c nude mice with subcutaneously (s.c.) transplanted tumor cells. The experiment lasted for 29 days after the medicament administration for the first time (the administration of the medicaments was started on Day 5 after the tumor strain transplantation).
(§2) The medicament and the reference drug were administered intragastrically multiple times at doses of 30 mg/kg and 10 mg/kg daily for 21 days.
(§3) The placebo group was given 1% starch solution intragastrically in equivalent volumes and in the same regime. Tumor nodes were measured 2 times per week. […] Once the treatment was completed, the last tumor measurement was carried out, and animals were weighed and euthanized.
(§4) The animals were weighed on the first day of the experiment, and then 2 times per week throughout the experiment according to the research protocol.
(§5) A tumor node was measured after tumor transplantation 2 times per week throughout the experiment. The tumor node volume was determined by the formula:
(§6) V=π/6*L*W*H, where L, W, H are the linear size dimensions of the tumor.
(§7) Determination of Antitumor Activity
(§8) Tumor growth inhibition index (TGI) was used as a criterion for the study of the medicament efficacy and calculated by the formula as follows:
(§9) TGI (%)=|Vctrl−Vexp|/Vctrl*100
(§10) where Vctrl and Vexp are the average tumor volume (mm^3) in the control and in the experimental groups, respectively.
(§11) After the course of the treatment, the animals were euthanized by the cervical dislocation of cervical vertebrae.
(§12) The statistical data processing was conducted using SPSS 21 package (license No. 20130626-3). Descriptive statistics in the study includes the following: arithmetic average, standard deviation (SD), standard mean error (SE), median, quartiles, interquartile range. To compare quantitative characteristics in the groups, the Mann-Whitney-Wilcoxon test was used without corrections for multiple comparisons. The results were considered statistically significant at p<0.05.

[5] = tested on: subcutaneous xenografts of human TNBC-Kad breast cancer
Procedure: as §1, §2, §3, §4, §5, §6, §7, §8, §9, §10, §11, §12

[6] = cholesterol and triglycerides in blood serum (summary statement)
[7] = pilot experiment, medicament 10 mg/kg, Day 10

## CC1(C)CC(=O)[C@@]2(C)CCc3c(ccc4cc(OS(N)(=O)=O)ccc34)[C@@H]2C1 [medicament, 3-O-sulfamate-16,16-dimethyl-D-homoequilenin]
[1]
  inhibition of cell proliferation: 83%
[2]
  IC50: 53.4 µM
Lung cancer A549
  IC50: 29.6 µM
[3]; 300 mg/kg
  signs of intoxication: None of the animals exhibited visual signs of intoxication
[3]; 300 mg/kg i.g.
  Lethal effects (dead/total): no animals died and no animals deaths were detected and 0/6
[3]; 300 mg/kg, Day 1 (before administration)
  average body weight: 28.1 g
[3]; 300 mg/kg, Day 1 (before administration), in g (unit assumed)
  body weight of individual mice: 29.6 and 27.8 and 28.0 and 30.0 and 27.0 and 26.4
[3]; 300 mg/kg, Day 2
  average body weight: 28.1 g
  average body weight, % from baseline: 0%
[3]; 300 mg/kg, Day 2, in g (unit assumed)
  body weight of individual mice: 29.2 and 27.4 and 27.8 and 30.4 and 27.2 and 26.8
[3]; 300 mg/kg, Day 7
  average body weight: 29.1 g
  average body weight, % from baseline: 3%
[3]; 300 mg/kg, Day 7, in g (unit assumed)
  body weight of individual mice: 29.6 and 28.2 and 29.7 and 31.2 and 28.4 and 27.2
[3]; 300 mg/kg, Day 14
  average body weight: 29.5 g
  average body weight, % from baseline: 5%
[3]; 300 mg/kg, Day 14, in g (unit assumed)
  body weight of individual mice: 30.2 and 29.0 and 30.6 and 31.1 and 28.6 and 27.6
[3]; 2000 mg/kg
  clinical signs of intoxication: No clinical signs of intoxication were observed
[3]; 2000 mg/kg i.g. in 2 steps
  Lethal effects (dead/total): 0/6
[3]; 2000 mg/kg, Day 1 (before administration)
  average body weight: 26.2 g
[3]; 2000 mg/kg, Day 1 (before administration), in g (unit assumed)
  body weight of individual mice: 28.4 and 27.5 and 25.7 and 24.2 and 24.0 and 27.2
[3]; 2000 mg/kg, Day 2
  average body weight: 25.8 g
  average body weight, % from baseline: −1%
  decrease in the average body weight from baseline: 1%
[3]; 2000 mg/kg, Day 2, in g (unit assumed)
  body weight of individual mice: 28.0 and 26.8 and 25.3 and 24.4 and 23.8 and 26.4
[3]; 2000 mg/kg, Day 7
  average body weight: 25.7 g
  average body weight, % from baseline: −2%
  decrease in the average body weight from baseline: 2%
[3]; 2000 mg/kg, Day 7, in g (unit assumed)
  body weight of individual mice: 26.8 and 24.9 and 25.0 and 25.9 and 25.4 and 26.3
[3]; 2000 mg/kg, Day 14
  average body weight: 27 g
  average body weight, % from baseline: 3%
  body weight of individual mice: 26.9 (2×) and 26.0 and 26.6 and 28.7 and 27.0
[3]; Day 15
  macroscopic examination of internal organs at autopsy: did not reveal any pathological changes; also recorded: did not reveal any abnormalities
[3]; mouse, in vivo
  hazard class / category: 5th or non-classified category and 4th hazard class and 5th or unclassified category
[3]; summary statement
  toxicity: absence of toxicity
[4]; medicament 10 mg/kg
  number of dead mice before the end of the observation period: 5 out of 7
[4]; medicament 10 mg/kg i.g. daily, Day 0 of treatment
  average tumor volume (M ± m): 1.0±0.4 mm^3
[4]; medicament 10 mg/kg i.g. daily, Day 0 of treatment, listed as Steroid
  average tumor volume (M ± m): 1.0 ± 0.4 mm^3
[4]; medicament 10 mg/kg, Day 3
  average tumor volume (M ± m): 1.2 ± 0.4 mm^3
[4]; medicament 10 mg/kg, Day 7
  SKBR-3 growth inhibition, TGI: 74.3%
  average tumor volume (M ± m): 5.1±2.3 mm^3
[4]; medicament 10 mg/kg, Day 7, listed as Steroid
  average tumor volume (M ± m): 5.1 ± 2.3 mm^3
[4]; medicament 10 mg/kg, Day 10
  SKBR-3 growth inhibition, TGI: 68.0%
  average tumor volume (M ± m): 24.8±12.2 mm^3
[4]; medicament 10 mg/kg, Day 10, listed as Steroid
  average tumor volume (M ± m): 24.8 ± 12.2 mm^3
[4]; medicament 10 mg/kg, Day 14
  SKBR-3 growth inhibition, TGI: 94.3%
  average tumor volume (M ± m): 6.9±2.2 mm^3
[4]; medicament 10 mg/kg, Day 14, listed as Steroid
  average tumor volume (M ± m): 6.9 ± 2.2 mm^3
[4]; medicament 10 mg/kg, Day 17
  SKBR-3 growth inhibition, TGI: 90.6%
  average tumor volume (M ± m): 17.6±0.7 mm^3
[4]; medicament 10 mg/kg, Day 17, listed as Steroid
  average tumor volume (M ± m): 17.6 ± 0.7 mm^3
[4]; medicament 10 mg/kg, Day 21
  SKBR-3 growth inhibition, TGI: 90.2%
  average tumor volume (M ± m): 26.1±12.1 mm^3
[4]; medicament 10 mg/kg, Day 21, listed as Steroid
  average tumor volume (M ± m): 26.2 ± 12.1 mm^3
[4]; medicament 10 mg/kg, Day 24
  SKBR-3 growth inhibition, TGI: 86.3%
  average tumor volume (M ± m): 32.0 ± 6.9 mm^3
[4]; [7]
  average tumor volume (Vaverage): 2.2±2.0 mm^3
  maximum TGI: 91.2%
[5]; medicament 10 mg/kg
  number of dead mice before the end of the observation period: 10 out of 10
[5]; medicament 10 mg/kg, Day 3
  average tumor volume (M ± m): 5.65 ± 1.64 mm^3
[5]; medicament 10 mg/kg, Day 7
  TNBC_Kad growth inhibition, TGI: 66.1%
  average tumor volume (M ± m): 27.0±5.1 mm^3 and 26.98 ± 5.12 mm^3
[5]; medicament 10 mg/kg, Day 10
  TNBC_Kad growth inhibition, TGI: 78.7%
  average tumor volume (M ± m): 21.6±4.9 mm^3 and 21.59 ± 4.88 mm^3
[5]; medicament 10 mg/kg, Day 14
  TNBC_Kad growth inhibition, TGI: 83.1%
  average tumor volume (M ± m): 27.6±2.6 mm^3 and 27.59 ± 2.57 mm^3
[5]; medicament 10 mg/kg, Day 17
  TNBC_Kad growth inhibition, TGI: 76.1%
  average tumor volume (M ± m): 46.3±5.3 mm^3 and 46.25 ± 5.31 mm^3
[5]; medicament i.g. 10 mg/kg, Day 0 of treatment
  average tumor volume (M ± m): 1.6±0.4 mm^3 and 1.57 ± 0.35 mm^3
[5]; xenograft human tumor of triple negative breast cancer
  efficacy compared with tamoxifen and letrozole: more effective than tamoxifen and aromatase inhibitor letrozole
[6]
  effects on the content of triglycerides in blood serum: absence of effects
  hypocholesterolemic activity: hypocholesterolemic activity
